Test results published in patent US20220009914A1, “Analogs of Nitrofuran Antibiotics to Combat Resistance” (The Trustees of Indiana University, priority 2020, published 2022).
Where two headings read alike, the source gives them in different places.

Experiments:
[1] = test system: Klebsiella pneumoniae strain NCTC 9633 (ATCC #13883); assay: bacterial proliferation assay, K. pneumoniae; assay type: cell-based; details: for EC50: Klebsiella pneumoniae, read-out: Bacterial Proliferation EC50 K. pneumoniae
Procedure: (§1) All compounds were evaluated for inhibiting the proliferation of E. coli and each of the ESKAPE bacteria. Results presented represent the averages of EC50 values obtained from at least four replicates. Evaluating compounds for inhibition of bacterial cell proliferation.
(§2) Growth Media: E. coli were grown with LB medium and all ESKAPE bacteria were grown in Brain Heart Infusion (BHI) medium (Becton, Dickinson and Company), with all liquid cultures supplemented with 25 mg/L Ca^2+ and 12.5 mg/L Mg^2+ to mimic physiological free concentrations of these cations. A 10 mg/mL Ca^2+ stock solution was prepared by dissolving 1.84 g of CaCl2.2H2O in 50 mL of deionized water, and a 10 mg/mL Mg^2+ stock solution was prepared by dissolving 4.18 g of MgCl2.6H2O in 50 mL deionized water—filter sterilized using 0.2 μm cellulose-acetate filters. 2.5 mL of the sterile 10 mg/mL Ca^2+ stock and 1.25 mL of the sterile 10 mg/mL Mg^2+ stock solutions were added per 1 L of autoclaved LB or BHI media to obtain 25 mg/L Ca^2+ and 12.5 mg/L Mg^2+ ions, respectively.
(§3) General Assay Protocol: Stock bacterial cultures were streaked onto LB or BHI agar plates and grown overnight at 37° C. Fresh aliquots of cation supplemented media were inoculated with single bacterial colonies and the cultures were grown overnight at 37° C. with shaking (240 rpm). The following morning, cultures were diluted 10-fold into fresh media and grown at 37° C. until bacteria had reached mid-log phase growth (OD600˜0.4-0.6). The cultures were then diluted into fresh media to achieve final OD600 readings of 0.017. Aliquots of these diluted cultures (30 μL) were added to clear, flat-bottom 384-well polystyrene plates that were previously stamped with 0.5 μL of test compounds in 20 μL of media (yielding initial OD600=0.01 bacterial cultures). All compounds were tested in dose-response with concentration ranges during the proliferation assays from 100 μM to 46 nM (3-fold dilution series). A second set of baseline control plates were prepared analogously, but without any bacteria added, to correct for possible compound absorbance and/or precipitation. […] Plates were then read at 600 nm using a Molecular Devices SpectraMax Plus384 microplate reader. […] Results presented represent the averages of EC50 values obtained from at least four replicates.
(§4) Evaluating analogs for inhibiting the growth of E. coli and the ESKAPE bacteria. Analogs were initially tested for antibacterial efficacy against representative strains of antibiotic-sensitive E. coli and the ESKAPE bacteria. To determine compound efficacy, bacterial proliferation assays were carried out in liquid media culture supplemented with physiological concentrations of free calcium and magnesium cations. For these assays, bacterial cultures (OD600=0.01) were exposed to test compounds in 8-point, 3-fold dilution series (100 μM to 46 nM concentration range), in 384-well plates. After addition of compounds to cultures, the plates were sealed with Breathe-Easy gas permeable membranes and allowed to grow to mid-log phase (OD600˜0.4-0.6), whereupon final OD600 readings were taken to assess for bacterial growth and inhibition.

E. coli GroEL/ES = biological target: T1, E. coli GroEL/ES (Escherichia coli, UniProt P0A6F5); assay: GroEL/ES-mediated dMDH refolding assay; assay type: biochemical
T1 construct: made in house; host or cells: GroEL in NEB 5-alpha E. coli; GroES in E. coli BL21 (DE3)
Procedure: Evaluating compounds for inhibition in the GroEL/ES-mediated dMDH refolding assay. All compounds were evaluated for inhibiting E. coli GroEL/ES-mediated refolding of the denatured MDH reporter enzyme. Reagent preparation: For these assays, four primary reagent stocks were prepared: 1) GroEL/ES-dMDH binary complex stock; 2) ATP initiation stock; 3) EDTA quench stock; 4) MDH enzymatic assay stock. Denatured MDH (dMDH) was prepared by 2-fold dilution of MDH (5 mg/ml, soluble pig heart MDH from Roche, product #10127248001) with denaturant buffer (7 M guanidine-HCl, 200 mM Tris, pH 7.4, and 50 mM DTT). MDH was completely denatured by incubating at room temperature for >45 min. The binary complex solutions were prepared by slowly adding the dMDH stock to a stirring stock with GroEL and GroES in folding buffer (50 mM Tris-HCl, pH 7.4, 50 mM KCl, 10 mM MgC2, and 1 mM DTT). […] For the ATP initiation stock, ATP solid was diluted into folding buffer to a final concentration of 2.5 mM. Quench solution contained 600 mM EDTA (pH 8.0). The MDH enzymatic assay stock consisted of 20 mM sodium mesoxalate and 1.6 mM NADH in reaction buffer (50 mM Tris-HCl, pH 7.4, 50 mM KCl, and 1 mM DTT).
Assay Protocol: First, 30 μL aliquots of the GroEL/ES-dMDH binary complex stocks were dispensed into clear, 384-well polystyrene plates. […] The chaperonin-mediated refolding cycles were initiated by addition of 20 μL of ATP stock (reagent concentrations during refolding cycle: 50 nM GroEL, 60 nM GroES, 12 nM dMDH, 1 mM ATP, and compounds of 100 μM to 46 nM, 3-fold dilution series) and the refolding reactions were incubated at 37° C. […] Next, the assay was quenched by addition of 10 μL of the EDTA stock to give a final concentration of 100 mM in the wells. […] A340 nm measurements were recorded at 0.5 minutes (start point) and at successive time points until the amount of NADH consumed reached ˜90% (end point, generally between 20-35 minutes).
Evaluating analogs for inhibiting GroEL/ES-mediated substrate refolding functions. […] We first evaluated all test compounds in our standard GroEL/ES-mediated refolding assays that employ either malate dehydrogenase (MDH) or rhodanese (Rho) as the denatured substrate reporter enzymes. When denatured, these enzymes are efficiently folded by GroEL/ES in the absence of inhibitors, and thus act as reporters to determine the degree of inhibition against the bacterial chaperonin system. Inhibition was examined in the presence of these two orthogonal substrates in order to support that GroEL/ES inhibitors were on-target. To further support on-target effects against GroEL/ES, we counter-screened for inhibition of the native MDH and Rho enzymatic reporter reactions, where test compounds were added after the denatured MDH and Rho substrate enzymes were completely refolded by GroEL/ES.

[2] = test system: Enterococcus faecium strain NCTC 7171 (ATCC #19434); assay: bacterial proliferation assay, E. faecium; assay type: cell-based; details: read-out: Bacterial Proliferation EC50 E. faecium
Procedure: as §1, §2, §3, §4

[3] = without NfsB nitroreductase, read-out: GroEL/ES-dMDH Refolding IC50

T1 sequence (P0A6F5 2-548): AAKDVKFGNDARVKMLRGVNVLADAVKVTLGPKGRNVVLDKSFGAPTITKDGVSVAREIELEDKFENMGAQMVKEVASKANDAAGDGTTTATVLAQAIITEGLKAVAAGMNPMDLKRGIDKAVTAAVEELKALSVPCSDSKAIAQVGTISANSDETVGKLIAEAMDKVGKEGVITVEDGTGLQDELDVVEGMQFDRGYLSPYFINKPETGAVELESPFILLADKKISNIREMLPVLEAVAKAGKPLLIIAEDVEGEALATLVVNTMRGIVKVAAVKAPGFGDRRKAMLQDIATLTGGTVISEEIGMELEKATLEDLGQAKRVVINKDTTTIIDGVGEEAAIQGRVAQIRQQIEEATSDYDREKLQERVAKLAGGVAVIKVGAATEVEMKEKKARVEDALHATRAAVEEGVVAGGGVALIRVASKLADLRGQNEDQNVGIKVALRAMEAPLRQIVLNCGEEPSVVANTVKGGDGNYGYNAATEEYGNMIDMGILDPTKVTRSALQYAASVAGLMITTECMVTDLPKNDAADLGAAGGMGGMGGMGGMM

Compound | inhibition of K. pneumoniae in words [1] | EC50 [1] | IC50 (E. coli GroEL/ES; [3]) | EC50 [2] | IC50 (E. coli GroEL/ES) | GroEL/ES inhibition in words (E. coli GroEL/ES; standard dMDH and dRho refolding assays, no nitroreductase)
O=C(N/N=C/c1ccc([N+](=O)[O-])o1)c1ccc(Cl)s1 [Compound 17, 5-chloro-N′-((5-nitrofuran-2-yl)methylene)thiophene-2-carbohydrazide] | moderate inhibitors | 19 µM | 88 µM | 12 µM | – | –
O=C(N/N=C/c1ccc([N+](=O)[O-])o1)c1cccc2ccccc12 [Compound 22, N′-((5-nitrofuran-2-yl)methylene)-1-naphthohydrazide] | – | > 100 µM | – | 16 µM | 82 µM | –
CN(C)c1ccc(C(=O)N/N=C/c2ccc([N+](=O)[O-])o2)cc1 [Compound 21, 4-(dimethylamino)-N′-((5-nitrofuran-2-yl)methylene)benzohydrazide] | – | > 100 µM | 26 µM | > 100 µM | – | generally the most potent GroEL/ES inhibitors
O=C(N/N=C/c1ccc(O)c2ncccc12)c1cccs1 [Compound 3, N′-((8-hydroxyquinolin-5-yl)methylene)thiophene-2-carbohydrazide] | – | 99 µM | – | > 100 µM | 65 µM | –
COc1ccc(C(=O)N/N=C/c2cccc3ncccc23)cc1 [Compound 31, 4-methoxy-N′-(quinolin-5-ylmethylene)benzohydrazide] | – | > 100 µM | – | > 100 µM | > 100 µM | –
O=C(N/N=C/c1ccc(O)c2ncccc12)c1ccccc1 [Compound 5, N′-((8-hydroxyquinolin-5-yl)methylene)benzohydrazide] | – | 82 µM | – | > 100 µM | > 100 µM | –
O=C(N/N=C/c1ccc(O)c2ncccc12)c1ccncc1 [Compound 6, N′-((8-hydroxyquinolin-5-yl)methylene)isonicotinohydrazide] | – | > 100 µM | – | > 100 µM | > 100 µM | –
O=C1CN(/N=C/c2ccc(O)c3ncccc23)C(=O)N1 [Compound 2, 1-(((8-hydroxyquinolin-5-yl)methylene)amino)imidazolidine-2,4-dione] | – | > 100 µM | – | > 100 µM | > 100 µM | –
O=C(N/N=C/c1ccc(O)c2ccccc12)c1ccccc1 [Compound 30, N′-((4-hydroxynaphthalen-1-yl)methylene)benzohydrazide] | – | > 100 µM | – | > 100 µM | > 100 µM | –
O=C(N/N=C/c1cccc2ncccc12)c1ccccc1 [Compound 32, N′-(quinolin-5-ylmethylene)benzohydrazide] | – | > 100 µM | – | > 100 µM | > 100 µM | –
O=C(N/N=C/c1ccc(O)c2ncccc12)c1cccc(Oc2ccccc2)c1 [Compound 11, N′-((8-hydroxyquinolin-5-yl)methylene)-3-phenoxybenzohydrazide] | – | > 100 µM | – | > 100 µM | 13 µM | –
COc1ccc(C(=O)N/N=C/c2ccccc2)cc1 [Compound 37, N′-benzylidene-4-methoxybenzohydrazide] | – | > 100 µM | – | > 100 µM | > 100 µM | –
COc1ccc(C(=O)N/N=C/c2ccc(O)c3ccccc23)cc1 [Compound 29, N′-((4-hydroxynaphthalen-1-yl)methylene)-4-methoxybenzohydrazide] | – | > 100 µM | – | > 100 µM | > 100 µM | –
O=C(N/N=C/c1ccc(O)c2ncccc12)c1ccc(NS(=O)(=O)c2ccc(Br)cc2)cc1 [Compound 14, 4-bromo-N-(4-(2-((8-hydroxyquinolin-5-yl)methylene)hydrazine-1-carbonyl)phenyl)benzenesulfonamide] | – | > 100 µM | – | > 100 µM | 14 µM | –
COc1ccc(C(=O)N/N=C/c2ccc(O)cc2)cc1 [Compound 35, N′-(4-hydroxybenzylidene)-4-methoxybenzohydrazide] | – | > 100 µM | – | > 100 µM | > 100 µM | –
O=C(N/N=C/c1ccc(O)c2ncccc12)c1ccc(NS(=O)(=O)c2cccs2)cc1 [Compound 13, N-(4-(2-((8-hydroxyquinolin-5-yl)methylene)hydrazine-1-carbonyl)phenyl)thiophene-2-sulfonamide] | – | > 100 µM | – | > 100 µM | 3.2 µM | –
COc1ccc(C(=O)N/N=C/c2ccco2)cc1 [Compound 39, N′-(furan-2-ylmethylene)-4-methoxybenzohydrazide] | – | > 100 µM | – | > 100 µM | > 100 µM | –
O=Cc1ccc(O)c2ncccc12 [Compound 40, reference compound] | – | 15 µM | > 100 µM | 7.3 µM | – | –
O=C(N/N=C/c1cccc2ccccc12)c1ccccc1 [Compound 34, N′-(naphthalen-1-ylmethylene)benzohydrazide] | – | > 100 µM | – | > 100 µM | > 100 µM | –
COc1ccc(C(=O)N/N=C/c2cccc3ccccc23)cc1 [Compound 33, 4-methoxy-N′-(naphthalen-1-ylmethylene)benzohydrazide] | – | > 100 µM | – | > 100 µM | > 100 µM | –
CCN(CC)S(=O)(=O)c1cccc(C(=O)N/N=C/c2ccc(O)c3ncccc23)c1 [Compound 12, N,N-diethyl-3-(2-((8-hydroxyquinolin-5-yl)methylene)hydrazine-1-carbonyl)benzenesulfonamide] | – | > 100 µM | – | > 100 µM | 19 µM | –
